Data set [1] concerns chordin (chd). The data set can be described thus: chd knockdown phenotype in microinjected zebrafish embryos. It is filed as in vivo. Particulars: incubated in the dark; for Phenotype of embryos: injected at 1-cell stage, 24-28 hpf. How it is done:
FIG. 15 is a series of images depicting zebrafish, including the chd-MO knockdown phenotype. Zebrafish embryos were injected at the 1-cell stage with 0.51 mM chd-MO and imaged at 24 hpf. […] Embryos scored as normal had V-shaped somites, and normal head and tail development. Severe was identified by decreased head size, U-shaped somites, and a large blood island on the tail. The moderate and mild phenotypes were identified by U-shaped somites and a medium or small blood island on the tail.
(§1) FIG. 16A is an image of a wildtype embryo, uninjected. […] All embryos were injected at 1-cell stage. […] MO Control: Zebrafish embryos were injected at the 1-cell stage with 0.25 mM ntl-MO and imaged at 24 hpf. Ru-MO-ntl: Zebrafish embryos were injected at the 1-cell stage with 0.25 mM Ru-MO-ntl. Half of the embryos were irradiated (450 nm, 14 mW/cm^2, 5 min) at 1 hpf, while the other half were incubated in the dark. Embryos were scored for phenotype at 24 hpf and compared to wildtype.
Zebrafish embryos were obtained. All embryos obtained were TLF×TLF WT. Zebrafish embryo injection solutions were prepared to contain a final concentration of 0.1 M KCl and 0.25% phenol red dye. All injections were performed at the one-cell stage and injected into the cell compartment only. A Harvard Apparatus PLI-100 pico-injector was used to inject controlled volumes. Injection volume was calibrated to dispense 5 nL per embryo. Zebrafish embryos were incubated at 28° C. in E3 zebrafish medium. […]
MO-chd or Ru-cMO-chd (514 pmol/μL) was microinjected into 1-cell-stage zebrafish embryos, which were incubated at 28° C. in the dark and at 24 hours post-fertilization (hpf), scored for phenotypic response and imaged using a previously reported method (Westerfield, from “The Zebrafish Book. A guide for the Laboratory Use of Zebrafish (Danio rerio).” 4th ed.; University of Oregon Press, 2000). Embryos scored as normal had V-shaped somites, and normal head and tail development. […]

Data set [2] can be described thus: Selective photoactivation of Ru photolinkers (FIG. 25B). In kind it is physicochemical. An excerpt: FIG. 25, comprising FIG. 25A-25B, depicts exemplary compounds of the invention.
Compounds [Ru(bpy)2(4-pentynenitrile)2][Cl]2 (Ru420) and [Ru(biq)2(4-pentynenitrile)2][Cl]2 (Ru530) are compounds of the invention which are useful for multiplexing of DNA and morpholino oligonucleotides (FIG. 25A).

The conditions of data set [3]: 450-nm light, 53 mW/cm^2, 80 μM, 1.5 mL, stirred.
Protocol: Light source: 450 nm laser (14 mW/cm^2), 14 μM RuBEP in water, 0.2 OD.
A sapphire Galaxy Blue handheld laser was purchased from Beam of Light Technologies (Oregon, USA) and used to determine the quantum yield of RuBEP. Measured power at the sample was 53 mW/cm^2, with a maximum output wavelength of 450 nm.
Photodissociation of 3EP from RuBEP was monitored by LCMS (FIG. 4), UV-Vis (FIG. 6B) and ^1H and ^13C NMR (FIG. 5) spectroscopies. Upon continuous irradiation with 450-nm light (53 mW/cm^2, focused to 0.5 cm^2), the λmax red-shifted from 450 nm to 473 nm (FIG. 6B).
The formula for fitting the initial kinetics of the photoreaction is as follows:
[formula] Where: P1=net power of the laser during the trial (mW) E=energy of 450 nm light (J/photon) εs=extinction coefficient of RuBEP (starting material) at 475 nm=1800 M^−1cm^−1 εp=extinction coefficient of Rubpy2(3EP)(H2O)(product) at 475 nm=3800 M^−1cm^−1
The conditions of data set [4]: reported, Zayat et al. 2003; cited from earlier work.
Data set [5] deals with notail (ntl). As to the kind of experiment: ntl knockdown phenotype in microinjected zebrafish embryos. It is filed as in vivo. Particulars: 0.25 mM injected at 1-cell stage, 24 hpf. The method, then: as §1
FIG. 17 is a series of images depicting zebrafish, including the ntl-MO knockdown phenotype. Zebrafish embryos were injected at the 1-cell stage with 0.25 mM ntl-MO and imaged at 24 hpf. […] Class 2 was identified by U-shaped somites, a shortened posterior axis, with the notochord still present.
FIG. 19 is a graph depicting Ru-cMO-ntl in vivo data. MO Control:Zebrafish embryos were injected at the 1-cell stage with 0.25 mM ntl-MO and imaged at 24 hpf. Ru-cMO-ntl:Zebrafish embryos were injected at the 1-cell stage with 0.25 mM Ru-cMO-ntl. Half of the embyros were irradiated (450 nm, 14 mW/cm^2, 5 min) at 1 hpf, while the other half were incubated in the dark. Embryos were scored for phenotype at 24 hpf and compared to wildtype.
Zebrafish embryos were obtained. All embryos obtained were TLF×TLF WT. […]

For the molecule “MO-chd: linear antisense morpholino targeting chordin, ATCCACAGCAGCCCCTCCATCATCC (SEQ ID NO: 4) (all phosphorodiamidate morpholino (PMO))”, the “Embryos with normal phenotype” value in data set [1] (MO-chd control injections, 24 hpf) is given as ~5%. For the same molecule, the results for the Phenotype of embryos entry in data set [1] (listed as Bis-azido chd-MO) and in data set [1] (listed as chd-MO) were “chd knockdown phenotype” and “severe to mild”, respectively.

Turning to “[Ru(biquinoline)2(4- pentynenitrile)2]^2+ [Ru530]”, the Selective activation result in data set [2] is “can be selectively activated”.

For the molecule “[Ru(bipyridine)2(3-ethynyl- pyridine)2]^2+ [RuBEP]”, the Selective activation result in data set [2] is “can be selectively activated”. Further, the “Time to complete photolysis of bulk solution” value in data set [3] came to 5 min.

Take “[Ru(bipyridine)2(4- pentynenitrile)2]^2+ [Ru420]”: in data set [2], the Selective activation entry is reported as “can be selectively activated”. On to `[Cl-].[Cl-].[Ru+2].c1ccc(-c2ccccn2)nc1.c1ccc(-c2ccccn2)nc1.c1ccncc1.c1ccncc1` [Ru(bpy)2(pyr)2Cl2], for which the “Quantum yield of ligand exchange” value in data set [4] was 0.4.

“ntl-MO: linear antisense morpholino targeting notail, AGCTTGAGATAAGTCCGACGATCCT (SEQ ID NO: 7) (all phosphorodiamidate morpholino (PMO))”: in data set [5], the ntl knockdown phenotype result is on record as “severe (class 4) to mild (class 2)”.

The values are drawn from patent US11046721B2, “Ruthenium-based photolinkers and methods of use” (The Trustees of the University of Pennsylvania, priority 2014, dated 2021).
